# Test results as given in ChEMBL document CHEMBL6087446, “Hypoxia Activated Nitric Oxide Donor Compounds for the Prevention and Treatment of Myocardial Hypoxia-Induced Injury” (J Med Chem, 2025).
# The source made the active and inactive calls. The calls are words filed in the database; no cut-off is given here.
# Assays:
# Mus musculus [1] = test: Prevention of myocardial hypoxia injury in isoproterenol-induced male C57 mouse myocardial injury model assessed as reduction in creatine kinase (CK) at 5 mg/kg, ip once daily for 3 consecutive days by immunohistochemistry; type: functional, organism-based; conditions: time 3.0 day
# H9c2 [2] = test: Induction of NO release in rat H9c2 cells under hypoxia condition by Griess reagent assay relative to control; type: functional, cell-based
# Mus musculus [3] = test: Prevention of myocardial hypoxia injury in isoproterenol-induced male C57 mouse myocardial injury model assessed as increase in NO level in heart tissue at 16 mg/kg, ip once daily for 3 consecutive days; type: functional, organism-based; conditions: time 3.0 day
# Mus musculus [4] = test: (§1) Prevention of myocardial hypoxia injury in isoproterenol-induced male C57 mouse myocardial injury model assessed as pathological myocardial change by clear vascular boundaries at 8 to 16 mg/kg, ip once daily for 3 consecutive days by hematoxylin and eosin staining based analysis; type: functional, organism-based; conditions: dose 8-16 mg/kg, time 3.0 day
# Mus musculus [5] = test: Prevention of myocardial hypoxia injury in isoproterenol-induced male C57 mouse myocardial injury model assessed as reduction in cardiac troponin (CK) at 5 mg/kg, ip once daily for 3 consecutive days by immunohistochemistry; type: functional, organism-based; conditions: time 3.0 day
# H9c2 [6] = test: Prevention of hypoxia-induced ROS production in rat H9c2 cells at 1 uM measured after 4 hrs incubation by DCFH-DA method; type: functional, cell-based
# Mus musculus [7] = test: Prevention of myocardial hypoxia injury in isoproterenol-induced male C57 mouse myocardial injury model assessed as increase in NO level in heart tissue at 8 mg/kg, ip once daily for 3 consecutive days; type: functional, organism-based; conditions: time 3.0 day
# Mus musculus [8] = test: Prevention of myocardial hypoxia injury in isoproterenol-induced male C57 mouse myocardial injury model assessed as pathological myocardial change by absence of infarction areas at 8 to 16 mg/kg, ip once daily for 3 consecutive days by hematoxylin and eosin staining based analysis; type: functional, organism-based; conditions: dose 8-16 mg/kg, time 3.0 day
# [9] = Toxicity in isoproterenol-induced male C57 mouse assessed as body weight change at 8 mg/kg, ip once daily for 3 consecutive days; type: organism-based; conditions: in vivo, 72 h, time 3 day
# [10] = Tmax in female Balb/c mouse at 8 mg/kg, ip measured up to 24 hrs by LC-MS/MS analysis; type: ADME, organism-based; conditions: in vivo
# Mus musculus [11] = test: Prevention of myocardial hypoxia injury in isoproterenol-induced male C57 mouse myocardial injury model assessed as pathological myocardial change by measuring cellular arrangements at 8 to 16 mg/kg, IG once daily for 3 consecutive days by hematoxylin and eosin staining based analysis; type: functional, organism-based; conditions: dose 8-16 mg/kg, time 3.0 day
# Mus musculus [12] = test: Prevention of myocardial hypoxia injury in isoproterenol-induced male C57 mouse myocardial injury model assessed as prevention of bundle collagen fiber deposition at 8 to 16 mg/kg, ip once daily for 3 consecutive days by Masson staining based analysis; type: functional, organism-based; conditions: dose 8-16 mg/kg, time 3.0 day
# Mus musculus [13] = test: as §1, with “measuring improvement in disorganized cell arrangement” for “clear vascular boundaries”; type: functional, organism-based; conditions: dose 8-16 mg/kg, time 3.0 day
smiles,measurement,setting,value
CN(N=O)c1ccc(OCc2ccc([N+](=O)[O-])c(F)c2)cc1,Activity,Mus musculus [1],Active
same,Activity,H9c2 [2],Dose-dependent-effect
same,Activity,Mus musculus [3],Active
same,Activity,Mus musculus [4],Active
same,Activity,Mus musculus [5],Active
same,Activity,H9c2 [6],Active
same,Activity,Mus musculus [7],Active
same,Activity,Mus musculus [8],Active
same,Activity,[9],Non-toxic
same,Tmax,[10],2.08 h
same,Activity,Mus musculus [11],Active
same,Activity,Mus musculus [12],Active
same,Activity,Mus musculus [13],Active
